Measurements published in patent publication US10723726B2, “Solid forms of (Z)-4-(5-((3-benzyl-4-oxo-2-thioxothiazolidin-5-ylidene)methyl)furan-2-yl)benzoic acid” (GB006, INC., priority 2015, dated 2020).
“Also recorded” adds a separate entry of the source. Structures can show the parent of a compound that is named as a salt. Where two headings read alike, the source gives them in different places. Blank lines part the entries; values can stand above or below the compound they belong to.

Columns and labels:
[1] = Solubility estimation by aliquot addition and temperature cycling; type: physicochemical; conditions: for solubility: thermodynamic from solid, 20° C., read-out: Approx. solubility
Procedure: Aliquots of the test solvent were added to an accurately weighed sample (−10 mg) of LA1 at ambient temperature. The aliquot volumes were typically 200-1000 μL. Complete dissolution of the test material was determined by visual inspection. The solubility was estimated from these experiments based on the total solvent used to provide complete dissolution.
First, the samples were heated from 20° C. to within 3° C. of solvent boiling point (or 100° C., whichever was lower) at 0.5° C./minute; then cooled to 20° C. at 0.2° C./minute while stirring at 800 rpm.
From the infrared (IR) transmission data of the sample vials, dissolution and precipitation events were recorded as the point of complete transmission of IR and the onset of turbidity by IR respectively. Selected samples were also agitated on an orbital shaker at 50° C. and visually observed for dissolution.

[2] = in vivo
Procedure: (§1) In a second experiment, the dose solution was prepared in Tween-80 (0.02%) and 0.5% methyl cellulose in Milli-Q water. IP (2 mg/kg) and IV (1 mg/kg) dose solutions were prepared in a 5% DMSO and 95% PEG-200.
(§2) The PO (2 mg/kg) dose solution was prepared in Tween-80 (0.02%) and 0.5% methyl cellulose in Milli-Q water. The IV (1 mg/kg) dose solution was prepared in a solution of 5% DMSO and 95% PEG-200.
(§3) The routes of administration were namely PO (gavage), IP (bolus) and IV (bolus through tail vein). A total of four SD male rats were used aged between 5-6 weeks. The feeding regimen included 12 h fasting and the feed was provided 2 hrs after the dosage inoculation and water was provided ad libidum. The blood collection schedule for PO/IP was at 0.25, 0.5, 1, 2, 4, 8, 10 and 24 h, and for IV it was at 0.12, 0.25, 0.5, 1, 2, 4, 8 and 24 h. For PO dosage, tween-80 (0.02%) and 0.5% methyl cellulose prepared in milli-Q water were used as vehicles; for IP and IV dosage 5% DMSO and 95% PEG-200 were used as vehicles.
(§4) Stock solution (178 μg/mL) in methanol was further diluted using methanol: water (80:20, v/v) to obtain working solutions in the range of 10.4 to 20745 ng/mL.
(§5) 50 μL of sample was aliquoted in to pre-labeled vials. To it was added 200 μL of 10% tetrahydrofuran containing IS (100 ng/mL; tolbutamide) and mixed well, vortexed for 5 min followed by centrifugation for 5 min at 14000 rpm for at 4° C. Supernatant was separated and 5 μL of same was injected on LC-MS/MS.
(§6) Data Analysis: Individual concentration-time data were analyzed using WinNonlin (Version 5.3) by non-compartmental analysis (NCA) method.
(§7) The routes of administration were namely PO (gavage) and IV (bolus through tail vein). A total of four SD male rats were used aged between 5-6 weeks. The feeding regimen included 12 h fasting and the feed was provided 2 hrs after the dosage inoculation and water was provided ad libitum. The blood collection schedule for PO was at 0.25, 0.5, 1, 2, 4, 8, 10 and 24 h, and for IV it was at 0.12, 0.25, 0.5, 1, 2, 4, 8 and 24 h. For PO dosage, tween-80 (0.02%) and 0.5% methyl cellulose prepared in milli-Q water were used as vehicles; for IV dosage 10% DMSO and 90% PEG-200 were used as vehicles.

[3] = mouse, in vivo, po
Source text: Mice were inoculated with B16F10 tumors as described above. Once the tumor volume reached around 45 mm^3, animals were randomized into various groups with 10 animals in all the groups so that the average tumor volume of each group was similar.
LA1 was combined with a solution containing 5% DMSO, 5% Solutol:ethanol (1:1), 20% Tween20, and 70% N-saline.

in vivo = conditions: male, rat; for half-life: t1/2,ß
Procedure: as §1, §2, §3, §4, §5, §6, §7

[4] = male, Sprague Dawley, rat, ip, 2 mg/kg
[5] = male, Sprague-Dawley, rat, ip, 2 mg/kg
[6] = male, Sprague-Dawley, rat, iv, 1 mg/kg
[7] = male, Sprague-Dawley, rat, po, 2 mg/kg

dissolution upon heating ([1]; DMF, 73° C.): 10 mg/mL
solubility ([1]; aqueous with cosolvent or surfactant or cyclodextrin, DMF:water (1:1)): < 10000 µg/mL
solubility ([1]; organic solvent or mixture, DMF:MeOH (1:1)): < 10000 µg/mL
solubility ([1]; organic solvent or mixture, DMF:THF (1:1)): < 7000 µg/mL
solubility ([1]; organic solvent or mixture, MeOH:ACN:dioxane (1:1:1)): < 10000 µg/mL
solubility ([1]; organic solvent or mixture, MeOH:acetone (1:1)): < 10000 µg/mL
solubility ([1]; organic solvent or mixture, THF:Acetone (1:1)): < 10000 µg/mL
solubility ([1]; organic solvent or mixture, THF:MeOH (1:1)): < 10000 µg/mL
solubility ([1]; organic solvent or mixture, THF): < 10000 µg/mL
solubility ([1]; organic solvent or mixture, acetone): < 10000 µg/mL
solubility ([1]; organic solvent or mixture, acetonitrile): < 10000 µg/mL
solubility ([1]; organic solvent or mixture, anisole): < 10000 µg/mL
solubility ([1]; organic solvent or mixture, dichloromethane): < 10000 µg/mL
solubility ([1]; organic solvent or mixture, dimethylformamide): < 10000 µg/mL
solubility ([1]; organic solvent or mixture, hexafluoroisopropanol): < 10000 µg/mL
solubility ([1]; organic solvent or mixture, methanol): < 10000 µg/mL
Rat F % ([2]; po, 2 mg/kg): Exposure too low
Vss ([2]; male, Sprague Dawley, rat): 4.19 L/kg
MRT [2, 4]: 3.44 h
Vss ([2]; male, Sprague-Dawley, rat): 4.19 L/kg
AUC0-t [2, 5]: 1481 ng·h/mL
AUC0-∞ [2, 5]: 1499 ng·h/mL
MRT [2, 5]: 3.44 h
Tlast [2, 5]: 20.5 h
C0 [2, 6]: 1317 ng/mL
MRT [2, 6]: 3.38 h
Tlast [2, 6]: 20.0 h
MRT (hr) ([2]; rat, po, 2 mg/kg): Exposure too low
exposure in blood at end of study [3]: below the limit of quantitation
exposure in tumor at end of study [3]: below the limit of quantitation
clearance (in vivo; Sprague Dawley, iv, 1 mg/kg, Rat Cl (ml/min/kg)): 19.7 mL/min/kg
bioavailability (in vivo; Sprague-Dawley, % F (absolute IP bioavailability)): 82%
clearance (in vivo; Sprague-Dawley, Rat Cl (ml/min/kg)): 20 mL/min/kg
bioavailability (in vivo; Sprague-Dawley, ip, 2 mg/kg, % F (absolute IP bioavailability)): 81.6%
AUC (in vivo; Sprague-Dawley, ip, 2 mg/kg, AUC in mM*hr): 3.5 µM·h
Tmax (in vivo; Sprague-Dawley, ip, 2 mg/kg): 0.25 h
AUC0-t (in vivo; Sprague-Dawley, iv, 1 mg/kg, AUC0-t): 903 ng·h/mL
AUC(0-inf) (in vivo; Sprague-Dawley, iv, 1 mg/kg, AUC0-∞): 918 ng·h/mL
clearance (in vivo; Sprague-Dawley, iv, 1 mg/kg, CL): 19.7 mL/min/kg
Cmax (in vivo; Sprague-Dawley, iv, 1 mg/kg, Cmax): 952 ng/mL
clearance (in vivo; Sprague-Dawley, iv, 1 mg/kg, Rat Cl (ml/min/kg)): 19.7 mL/min/kg
Vd (in vivo; Sprague-Dawley, iv, 1 mg/kg, Vd): 2.39 L/kg
half-life (in vivo; Sprague-Dawley, iv, 1 mg/kg): 1.16 h
SMILES: O=C(O)c1ccc(-c2ccc(/C=C3\SC(=S)N(Cc4ccccc4)C3=O)o2)cc1 [LA1, (Z)-4-(5-((3-benzyl-4-oxo-2-thioxothiazolidin-5-ylidene)methyl)furan-2-yl)benzoic acid]
solubility by aliquot addition, overall ([1]; all solvents and solvent mixtures tested): insoluble in all solvents tested; also recorded: poor solubility in all solvents tested

Rat Cl ([2]; male, Sprague Dawley, iv, 1 mg/kg): 17.6 mL/min/kg
Vss ([2]; male, Sprague Dawley, rat): 0.73 L/kg
MRT [2, 4]: 1.02 h
Rat Cl ([2]; male, Sprague-Dawley): 18 mL/min/kg
Rat Cl ([2]; male, Sprague-Dawley, iv, 1 mg/kg): 17.6 mL/min/kg
% F (absolute IP bioavailability) ([2]; male, Sprague-Dawley, rat): 84%
Vss ([2]; male, Sprague-Dawley, rat): 0.73 L/kg
AUC0-t [2, 5]: 1657 ng·h/mL
AUC0-∞ [2, 5]: 1666 ng·h/mL
MRT [2, 5]: 1.02 h
Tlast [2, 5]: 10.0 h
Tmax [2, 5]: 0.25 h
AUC0-t [2, 6]: 985 ng·h/mL
AUC0-∞ [2, 6]: 993 ng·h/mL
C0 [2, 6]: 1856 ng/mL
MRT [2, 6]: 0.72 h
Tlast [2, 6]: 7.00 h
Vd [2, 6]: 1.78 L/kg
AUC0-t [2, 7]: 808 ng·h/mL
AUC0-∞ [2, 7]: 814 ng·h/mL
Tlast [2, 7]: 10.0 h
bioavailability (in vivo; Sprague-Dawley, F (absolute oral bioavailability)): 41%
MRT (in vivo; Sprague-Dawley, po, 2 mg/kg, MRT): 1.81 h
half-life (in vivo; Sprague-Dawley, po, 2 mg/kg): 1.57 h
Tmax (in vivo; Sprague-Dawley, po, 2 mg/kg): 0.5 h
SMILES: O=C(O)c1ccc(-c2ccc(/C=C3\SC(=S)N(Cc4ccccc4)C3=O)o2)cc1 [LA1 choline salt]
